Measurements: ChEMBL document CHEMBL1138452, “1-Sulfonylindazoles as potent and selective 5-HT6 ligands” (Bioorg Med Chem Lett, 2009)
Values belong to the compound of their own block, whether it stands above or below them. The source made the active and inactive calls. The rule behind the calls is not given here.

Columns and labels:
[1] = molecular target: T1, 5-hydroxytryptamine receptor 6 (Homo sapiens, UniProt P50406); experiment: Agonist activity at human 5HT6 receptor expressed in CHOK1 cells assessed as increase in 5HT-induced intracellular calcium level at 0.1 to 10 uM by FLIPR assay; assay type: functional, cell-based; details: CHO-K1
T1 sequence (P50406 whole entry): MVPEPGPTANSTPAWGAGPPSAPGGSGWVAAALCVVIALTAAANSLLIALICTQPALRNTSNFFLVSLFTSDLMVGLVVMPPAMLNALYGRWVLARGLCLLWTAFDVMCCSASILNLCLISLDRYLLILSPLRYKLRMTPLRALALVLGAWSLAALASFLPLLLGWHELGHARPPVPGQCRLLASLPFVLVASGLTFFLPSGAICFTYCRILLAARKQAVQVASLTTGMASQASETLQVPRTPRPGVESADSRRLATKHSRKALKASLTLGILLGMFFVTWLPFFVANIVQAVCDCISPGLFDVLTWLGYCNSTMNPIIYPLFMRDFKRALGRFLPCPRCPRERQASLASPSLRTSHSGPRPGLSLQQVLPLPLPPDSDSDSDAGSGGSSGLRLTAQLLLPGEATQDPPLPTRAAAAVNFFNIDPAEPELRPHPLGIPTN

[2] = molecular target: 5-hydroxytryptamine receptor 7 (Homo sapiens, UniProt P34969); experiment: Binding affinity to 5HT7 receptor
Chain of 5-hydroxytryptamine receptor 7 (P34969 whole entry): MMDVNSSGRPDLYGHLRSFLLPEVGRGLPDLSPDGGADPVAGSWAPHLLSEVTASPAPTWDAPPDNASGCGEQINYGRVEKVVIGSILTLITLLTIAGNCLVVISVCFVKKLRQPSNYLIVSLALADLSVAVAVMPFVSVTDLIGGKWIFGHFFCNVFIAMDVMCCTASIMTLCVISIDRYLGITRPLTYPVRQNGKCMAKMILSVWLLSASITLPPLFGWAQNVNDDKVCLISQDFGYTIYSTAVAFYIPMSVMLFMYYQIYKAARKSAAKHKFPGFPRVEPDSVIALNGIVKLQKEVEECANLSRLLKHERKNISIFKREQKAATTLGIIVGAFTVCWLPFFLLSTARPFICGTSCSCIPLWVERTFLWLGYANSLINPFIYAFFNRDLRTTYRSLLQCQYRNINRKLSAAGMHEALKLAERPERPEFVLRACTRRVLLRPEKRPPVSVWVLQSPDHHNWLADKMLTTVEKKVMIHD

[3] = Metabolic stability in rat microsomes assessed as half life; assay type: ADME, Microsome
[4] = molecular target: D(2) dopamine receptor (Homo sapiens, UniProt P14416); experiment: Binding affinity to dopamine D2 receptor
Chain of D(2) dopamine receptor (P14416 whole entry): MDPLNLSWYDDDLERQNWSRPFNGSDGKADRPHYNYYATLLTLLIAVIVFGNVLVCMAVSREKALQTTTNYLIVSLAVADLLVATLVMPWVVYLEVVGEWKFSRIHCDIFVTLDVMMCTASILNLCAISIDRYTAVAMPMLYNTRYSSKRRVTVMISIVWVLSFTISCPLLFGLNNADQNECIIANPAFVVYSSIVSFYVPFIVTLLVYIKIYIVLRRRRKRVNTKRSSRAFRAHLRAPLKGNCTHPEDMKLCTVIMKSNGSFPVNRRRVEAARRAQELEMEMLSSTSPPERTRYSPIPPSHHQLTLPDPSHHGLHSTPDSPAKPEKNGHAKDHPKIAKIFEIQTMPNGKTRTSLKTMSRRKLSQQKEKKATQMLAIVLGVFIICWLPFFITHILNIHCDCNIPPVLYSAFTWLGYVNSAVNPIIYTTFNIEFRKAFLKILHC

[5] = molecular target: 5-hydroxytryptamine receptor 1B (Homo sapiens, UniProt P28222); experiment: Binding affinity to 5HT1b receptor
Chain of 5-hydroxytryptamine receptor 1B (P28222 whole entry): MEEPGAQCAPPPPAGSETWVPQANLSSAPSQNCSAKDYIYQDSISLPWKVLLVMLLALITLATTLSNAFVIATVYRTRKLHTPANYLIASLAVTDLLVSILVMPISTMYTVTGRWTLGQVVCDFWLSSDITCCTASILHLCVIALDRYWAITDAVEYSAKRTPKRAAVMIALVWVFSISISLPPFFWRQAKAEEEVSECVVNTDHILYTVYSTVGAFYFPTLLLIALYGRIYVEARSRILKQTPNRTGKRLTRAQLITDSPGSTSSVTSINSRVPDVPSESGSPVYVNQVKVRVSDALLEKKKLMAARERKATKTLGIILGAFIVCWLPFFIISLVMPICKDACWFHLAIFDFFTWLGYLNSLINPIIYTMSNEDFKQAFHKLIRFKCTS

[6] = Oral bioavailability in Sprague-Dawley rat at 10 mg/kg; assay type: ADME, organism-based; details: in vivo
[7] = molecular target: 5-hydroxytryptamine receptor 1D (Homo sapiens, UniProt P28221); experiment: Binding affinity to 5HT1d receptor
Chain of 5-hydroxytryptamine receptor 1D (P28221 whole entry): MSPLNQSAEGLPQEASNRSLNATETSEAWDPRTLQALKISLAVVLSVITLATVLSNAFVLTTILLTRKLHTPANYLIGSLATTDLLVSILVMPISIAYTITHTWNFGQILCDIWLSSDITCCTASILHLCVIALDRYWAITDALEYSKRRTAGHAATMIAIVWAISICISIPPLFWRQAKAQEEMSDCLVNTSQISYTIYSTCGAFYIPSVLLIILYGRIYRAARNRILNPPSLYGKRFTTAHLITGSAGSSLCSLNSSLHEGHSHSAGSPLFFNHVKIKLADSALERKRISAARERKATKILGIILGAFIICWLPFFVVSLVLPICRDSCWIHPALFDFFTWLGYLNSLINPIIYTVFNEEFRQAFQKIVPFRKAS

[8] = molecular target: Cytochrome P450 3A4 (Homo sapiens, UniProt P08684); experiment: Inhibition of CYP3A4; assay type: ADME
Chain of Cytochrome P450 3A4 (P08684 whole entry): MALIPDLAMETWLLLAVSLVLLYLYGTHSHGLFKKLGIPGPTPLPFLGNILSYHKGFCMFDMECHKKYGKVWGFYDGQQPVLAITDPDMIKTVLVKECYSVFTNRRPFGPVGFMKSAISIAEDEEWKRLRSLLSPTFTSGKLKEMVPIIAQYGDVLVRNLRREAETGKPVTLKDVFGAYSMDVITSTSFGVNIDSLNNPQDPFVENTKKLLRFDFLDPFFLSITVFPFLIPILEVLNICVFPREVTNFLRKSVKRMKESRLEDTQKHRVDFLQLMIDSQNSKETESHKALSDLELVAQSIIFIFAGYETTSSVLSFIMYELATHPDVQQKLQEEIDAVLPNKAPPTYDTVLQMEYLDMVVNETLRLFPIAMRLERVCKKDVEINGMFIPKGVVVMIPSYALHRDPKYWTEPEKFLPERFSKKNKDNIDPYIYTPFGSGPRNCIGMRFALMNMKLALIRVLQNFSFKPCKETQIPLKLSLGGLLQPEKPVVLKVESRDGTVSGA

[9] = molecular target: T2, 5-hydroxytryptamine receptor 1A (Homo sapiens, UniProt P08908); experiment: Binding affinity to 5HT1a receptor
T2 sequence (P08908 whole entry): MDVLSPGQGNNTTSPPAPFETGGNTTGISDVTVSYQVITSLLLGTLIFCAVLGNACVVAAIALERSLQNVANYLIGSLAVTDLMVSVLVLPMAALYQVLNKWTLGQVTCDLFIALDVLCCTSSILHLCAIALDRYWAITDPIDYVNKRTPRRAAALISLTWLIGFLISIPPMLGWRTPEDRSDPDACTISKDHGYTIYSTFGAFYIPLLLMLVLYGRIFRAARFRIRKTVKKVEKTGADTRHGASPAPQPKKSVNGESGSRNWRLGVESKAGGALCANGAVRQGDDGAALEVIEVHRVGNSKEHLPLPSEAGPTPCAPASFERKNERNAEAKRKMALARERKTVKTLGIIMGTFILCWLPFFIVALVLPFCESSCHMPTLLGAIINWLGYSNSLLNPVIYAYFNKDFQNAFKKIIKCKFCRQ

[10] = molecular target: 5-hydroxytryptamine receptor 2B (Homo sapiens, UniProt P41595); experiment: Binding affinity to 5HT2b receptor
Chain of 5-hydroxytryptamine receptor 2B (P41595 whole entry): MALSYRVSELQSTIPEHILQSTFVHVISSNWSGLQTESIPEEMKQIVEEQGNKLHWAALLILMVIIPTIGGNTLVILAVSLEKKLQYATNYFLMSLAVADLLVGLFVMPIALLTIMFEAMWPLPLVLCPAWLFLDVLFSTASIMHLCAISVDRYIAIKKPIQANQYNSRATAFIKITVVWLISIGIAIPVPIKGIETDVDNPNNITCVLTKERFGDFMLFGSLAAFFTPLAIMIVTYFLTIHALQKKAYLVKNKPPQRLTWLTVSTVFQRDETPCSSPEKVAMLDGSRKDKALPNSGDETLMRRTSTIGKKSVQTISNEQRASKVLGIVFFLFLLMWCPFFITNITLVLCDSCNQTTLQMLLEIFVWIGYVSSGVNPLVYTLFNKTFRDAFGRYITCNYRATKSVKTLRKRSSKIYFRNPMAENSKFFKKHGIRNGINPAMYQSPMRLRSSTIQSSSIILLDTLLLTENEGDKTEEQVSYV

[11] = molecular target: T1, 5-hydroxytryptamine receptor 6; experiment: Antagonist activity at human cloned 5HT6 receptor expressed in human HeLa cells assessed as blockage of 5-HT-stimulated cAMP formation; assay type: functional, cell-based
[12] = molecular target: Cytochrome P450 2D6 (Homo sapiens, UniProt P10635); experiment: Inhibition of CYP2D6; assay type: ADME
Chain of Cytochrome P450 2D6 (P10635 whole entry): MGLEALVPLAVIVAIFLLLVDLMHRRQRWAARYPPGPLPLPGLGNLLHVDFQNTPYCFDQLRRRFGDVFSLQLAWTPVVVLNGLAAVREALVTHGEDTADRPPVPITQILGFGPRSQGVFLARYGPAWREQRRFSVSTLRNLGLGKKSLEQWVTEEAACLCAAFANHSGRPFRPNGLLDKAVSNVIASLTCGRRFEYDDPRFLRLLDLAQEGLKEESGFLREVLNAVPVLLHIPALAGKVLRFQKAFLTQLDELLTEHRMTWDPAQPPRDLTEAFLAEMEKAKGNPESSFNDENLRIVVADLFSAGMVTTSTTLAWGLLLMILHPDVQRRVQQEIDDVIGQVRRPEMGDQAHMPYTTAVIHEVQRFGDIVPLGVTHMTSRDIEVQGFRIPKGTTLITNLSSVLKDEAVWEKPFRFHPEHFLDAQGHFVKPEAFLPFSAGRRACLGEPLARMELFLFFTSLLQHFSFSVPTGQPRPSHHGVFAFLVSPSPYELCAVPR

[13] = molecular target: Cytochrome P450 2C9 (Homo sapiens, UniProt P11712); experiment: Inhibition of CYP2C9; assay type: ADME
Chain of Cytochrome P450 2C9 (P11712 whole entry): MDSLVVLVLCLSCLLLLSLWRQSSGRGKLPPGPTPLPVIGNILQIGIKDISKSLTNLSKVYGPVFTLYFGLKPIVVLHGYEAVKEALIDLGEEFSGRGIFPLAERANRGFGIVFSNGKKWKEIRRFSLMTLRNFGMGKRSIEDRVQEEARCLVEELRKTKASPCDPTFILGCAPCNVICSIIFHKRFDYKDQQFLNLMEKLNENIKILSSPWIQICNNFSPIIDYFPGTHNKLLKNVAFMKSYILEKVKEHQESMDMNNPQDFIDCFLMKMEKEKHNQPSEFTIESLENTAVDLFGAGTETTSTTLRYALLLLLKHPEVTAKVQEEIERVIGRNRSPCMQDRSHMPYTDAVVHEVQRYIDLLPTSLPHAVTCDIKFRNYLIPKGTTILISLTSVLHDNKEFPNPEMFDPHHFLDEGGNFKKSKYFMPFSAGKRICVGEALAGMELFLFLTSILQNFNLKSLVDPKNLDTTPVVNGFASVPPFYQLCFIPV

[14] = Metabolic stability in human microsomes assessed as half life; assay type: ADME, Microsome
[15] = molecular target: T3, 5-hydroxytryptamine receptor 2C (Homo sapiens, UniProt P28335); experiment: Binding affinity to 5HT2c receptor
T3 sequence (P28335 whole entry): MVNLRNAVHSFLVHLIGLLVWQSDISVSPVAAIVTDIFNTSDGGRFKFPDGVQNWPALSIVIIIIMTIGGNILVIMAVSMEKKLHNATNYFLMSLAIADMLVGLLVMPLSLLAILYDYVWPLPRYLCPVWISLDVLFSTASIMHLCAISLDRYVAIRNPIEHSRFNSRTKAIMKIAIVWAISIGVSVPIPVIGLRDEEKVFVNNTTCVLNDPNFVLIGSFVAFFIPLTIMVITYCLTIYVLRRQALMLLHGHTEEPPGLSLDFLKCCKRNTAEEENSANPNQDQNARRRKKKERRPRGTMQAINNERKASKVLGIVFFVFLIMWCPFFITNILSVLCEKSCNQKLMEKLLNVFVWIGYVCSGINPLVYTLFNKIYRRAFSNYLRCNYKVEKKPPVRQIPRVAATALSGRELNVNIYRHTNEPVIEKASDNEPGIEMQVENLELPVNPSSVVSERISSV

[16] = molecular target: T4, Alpha-2A adrenergic receptor (Homo sapiens, UniProt P08913); experiment: Binding affinity to adrenergic alpha2A receptor
T4 sequence (P08913 whole entry): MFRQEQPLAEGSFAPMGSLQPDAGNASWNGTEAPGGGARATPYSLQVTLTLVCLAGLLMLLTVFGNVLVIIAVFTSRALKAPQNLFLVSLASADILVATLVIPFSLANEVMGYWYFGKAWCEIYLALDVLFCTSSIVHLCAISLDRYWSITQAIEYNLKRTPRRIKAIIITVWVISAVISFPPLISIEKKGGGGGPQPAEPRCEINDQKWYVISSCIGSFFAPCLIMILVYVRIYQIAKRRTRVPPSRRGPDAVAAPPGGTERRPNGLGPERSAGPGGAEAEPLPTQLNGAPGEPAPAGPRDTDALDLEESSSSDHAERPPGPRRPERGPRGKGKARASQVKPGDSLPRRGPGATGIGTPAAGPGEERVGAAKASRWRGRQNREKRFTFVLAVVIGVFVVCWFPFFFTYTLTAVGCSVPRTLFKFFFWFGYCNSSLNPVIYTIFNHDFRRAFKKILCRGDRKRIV

[17] = molecular target: T1, 5-hydroxytryptamine receptor 6; experiment: Displacement of [3H]LSD from human cloned 5HT6 receptor expressed in human HeLa cells; assay type: cell-based
[18] = system: Rattus norvegicus; experiment: Cognitive enhancing effect in Sprague-Dawley rat assessed as reversal of 24 hrs delay-induced retention deficit behavior at 10 mg/kp, po by novel object recognition assay; assay type: functional, organism-based

Structure (SMILES): O=C(Nc1ccc2cnn(S(=O)(=O)c3cccc4ccccc34)c2c1)C1CCNCC1
Activity [1]: inactive
Ki [2]: 6900 nM
half-life [3]: 11 min
Ki [4]: > 2000 nM
Ki [5]: > 2000 nM
bioavailability [6]: 5%
Ki [7]: > 2000 nM
IC50 [8]: 61000 nM
Ki [9]: 8500 nM
Ki [10]: 130 nM
IC50 [11]: 8 nM
Imax [11]: 100%
IC50 [12]: 350000 nM
IC50 [13]: 370000 nM
half-life [14]: > 30 min
Ki [15]: > 2000 nM
Ki [16]: > 2000 nM

Structure (SMILES): O=C(Nc1ccc2cnn(S(=O)(=O)c3cccc4ccccc34)c2c1)[C@@H]1CCCNC1
Ki [17]: 4 nM
Activity [11]: Active

Structure (SMILES): O=C(Nc1ccc2cnn(S(=O)(=O)c3cccc4ccccc34)c2c1)C1CCCNC1 (racemic)
Activity [1]: inactive
Ki [2]: 5800 nM
half-life [3]: 8 min
Ki [17]: 1.3 nM
Ki [4]: > 2000 nM
Ki [5]: 1800 nM
bioavailability [6]: 24%
Ki [7]: > 2000 nM
IC50 [8]: 260000 nM
Ki [9]: 5600 nM
Ki [10]: 174 nM
IC50 [11]: 10 nM
Imax [11]: 100%
IC50 [12]: 110000 nM
IC50 [13]: 140000 nM
half-life [14]: > 30 min
Ki [15]: > 2000 nM
Ki [16]: > 2000 nM
Activity [18]: Active

Structure (SMILES): O=C(CCN1CCCCC1)Nc1ccc2cnn(S(=O)(=O)c3cccc4ccccc34)c2c1
IC50 [11]: 170 nM
Imax [11]: 100%

Structure (SMILES): O=S(=O)(c1cccc2ccccc12)n1ncc2ccc(NCC3CCNCC3)cc21
Ki [17]: 18 nM

Structure (SMILES): O=C(Nc1ccc2cnn(S(=O)(=O)c3cccc4ccccc34)c2c1)[C@H]1CCCNC1
Ki [17]: 3.2 nM
Activity [11]: Active

Structure (SMILES): CCN(CC)CCC(=O)Nc1ccc2cnn(S(=O)(=O)c3cccc4ccccc34)c2c1
IC50 [11]: 260 nM
Imax [11]: 100%

Next, values leading:

IC50 [11]: 26 nM
Imax [11]: 100%
Structure (SMILES): CNCCC(=O)Nc1ccc2cnn(S(=O)(=O)c3cccc4ccccc34)c2c1

Ki [2]: 5100 nM
half-life [3]: 28 min
Ki [4]: > 2000 nM
Ki [5]: > 2000 nM
bioavailability [6]: 7%
Ki [7]: > 2000 nM
IC50 [8]: 30000 nM
Ki [9]: 6400 nM
Ki [10]: 155 nM
IC50 [11]: 11 nM
Imax [11]: 100%
IC50 [12]: 200000 nM
IC50 [13]: 7000 nM
half-life [14]: > 30 min
Ki [15]: > 2000 nM
Ki [16]: > 2000 nM
Structure (SMILES): NCCC(=O)Nc1cccc2c1cnn2S(=O)(=O)c1cccc2ccccc12

IC50 [11]: 53 nM
Imax [11]: 100%
Structure (SMILES): CN(C)CCC(=O)Nc1ccc2cnn(S(=O)(=O)c3cccc4ccccc34)c2c1

Activity [1]: inactive
Structure (SMILES): NCCC(=O)Nc1ccc2cnn(S(=O)(=O)c3cccc4ccccc34)c2c1
